Laboratory results published in patent publication US10632165B2, “Beneficial effect of Bidens pilosa on fat decrease and muscle increase” (Academia Sinica, priority 2016, dated 2020).

Columns and labels:
human SGBS cells = experiment: Differentiation of human SGBS cells, Oil Red O staining; assay type: cell-based; conditions: 25 μM
Protocol: (§1) The MTT assay of 3T3-L1 adipocytes grown in the medium containing vehicle or cytopiloyne at the indicated concentration for 24 hr is shown (A). 3T3-L1 pre-adipocytes were initiated for differentiation with DMSO (vehicle) and a mixture of Dex, IBMX and insulin for 2 days (B). The differentiating cells were then incubated with vehicle (inducer), rosiglitazone (RSG) or different doses of cytopiloyne until complete differentiation occurred. Lipid droplets from all the cells were visualized by Oil-Red-O staining and examined by light microscopy (left panel). Scale bars=10 μm. Oil Red O inside the cells was extracted and quantified at 520 nm (right panel). Expression of PPAR-γ and C/EBPα in 3T3-L1 cells treated with inducer in the presence of rosiglitazone (RSG) or cytopiloyne was analyzed by Western blot (C). The relative expression level (REL) of aP2 and adiponectin in 3T3-L1 cells was measured using real-time PCR (D). Effect of cytopiloyne on differentiation of human SGBS cells. The cells were incubated with DMEM/F12 medium (vehicle) or differentiation medium for 3 days (E). […]
(§2) The differentiated adipocytes were washed with phosphate-buffered saline (PBS) and fixed with 4% formaldehyde for 15 min. […] For lipid quantification, isopropanol was used to extract the intracellular oil red O, followed by measurement at 520 nm using a microplate reader.

3T3-L1 adipocytes = experiment: MTT assay of cell viability of adipocytes; assay type: cell-based, mouse; conditions: 24 hr
Protocol: as §1, with “(E). The cells were then incubated with vehicle (inducer) and cytopiloyne (25 μM) until a complete differentiation.” for “(E).”
MTT assay was used to determine cell viability of adipocytes. […] The plate was measured at 570 nm (signal) and 650 nm (reference) using a microplate reader (UVM340, Biochrom, UK).

C/EBPα = C/EBPα expression in 3T3-L1 cells (Western blot); assay type: cell-based, mouse; conditions: inducer plus test substance
Protocol: as §1, with “(E). The cells were then incubated with vehicle (inducer) and cytopiloyne (25 μM) until a complete differentiation.” for “(E).”
Western Blot. […] After developing with ECL substrate (GE Healthcare, UK), the membranes were detected using FLUORCHEM™ HD2 system (Bio-Techne, Minneapolis, Minn., USA).

PPARγ = PPARγ expression in 3T3-L1 cells (Western blot); assay type: cell-based, mouse; conditions: inducer plus test substance
Protocol: 3T3-L1 pre-adipocytes were initiated for differentiation with DMSO (vehicle) and a mixture of Dex, IBMX and insulin for 2 days (B). The differentiating cells were then incubated with vehicle (inducer), rosiglitazone (RSG) or different doses of cytopiloyne until complete differentiation occurred. […] Expression of PPAR-γ and C/EBPα in 3T3-L1 cells treated with inducer in the presence of rosiglitazone (RSG) or cytopiloyne was analyzed by Western blot (C).
3T3-L1 cells were maintained in DMEM medium containing 10% FBS, 4 mM glutamine, 4.5 g/L glucose, 1 mM sodium pyruvate, and 1.5 g/L sodium bicarbonate. The differentiation of 3T3-L1 cells into adipocytes was initiated by the addition of 10 μM Dex, 0.5 mM IBMX and 10 μg/mL insulin to the confluent cells for 2 days. The cells were then differentiated in medium containing 10 μg/mL insulin together with DMSO, rosiglitazone and cytopiloyne for an additional 8 to 10 days. The medium was changed every 2 days until the differentiation was complete.

adiponectin = experiment: Adiponectin expression in 3T3-L1 cells (real-time PCR); assay type: cell-based, mouse
Protocol: as §1, with “(E). The cells were then incubated with vehicle (inducer) and cytopiloyne (25 μM) until a complete differentiation. The cells were stained with Oil Red O and photographed. Scale bar=20 μm.” for “(E).”

3T3-L1 pre-adipocytes = experiment: Differentiation of 3T3-L1 pre-adipocytes, Oil Red O staining and lipid quantification; assay type: cell-based, mouse; conditions: 3T3-L1, inducer (Dex, IBMX and insulin) plus test substance
Protocol: as §1, §2

aP2 = aP2 expression in 3T3-L1 cells (real-time PCR); assay type: cell-based, mouse
Protocol: as §1, with “(E). The cells were then incubated with vehicle (inducer) and cytopiloyne (25 μM) until a complete differentiation. The cells were stained with Oil Red O and photographed. Scale bar=20 μm.” for “(E).”

CC#CC#CC#CC#CCCC(CO)O[C@@H]1O[C@H](CO)[C@@H](O)[C@H](O)[C@H]1O (stereo partly drawn) [cytopiloyne, 2-β-D-glucopyranosyloxy-1-hydroxytrideca-5,7,9,11-tetrayne]
production of lipid droplets (human SGBS cells): inhibitory effect of cytopiloyne on the production of lipid droplets was confirmed | cytotoxicity (MTT) (3T3-L1 adipocytes; 3T3-L1, 25 μM or less): did not show cytotoxicity | cytotoxicity (MTT) (3T3-L1 adipocytes; 3T3-L1, 50 μM): slight cytotoxicity | C/EBPα expression up-regulated by the inducer (C/EBPα): abolished the up-regulation | PPARγ expression up-regulated by the inducer (PPARγ): abolished the up-regulation | expression level of adiponectin up-regulated by the inducer (adiponectin): abolished this up-regulation | production of lipid droplets in adipocytes (3T3-L1 pre-adipocytes): dose-dependently inhibited this production | expression level of aP2 up-regulated by the inducer (aP2): abolished this up-regulation
